In patent US8653087B2, “Pyrido [5, 4-D] pyrimidines as cell proliferation inhibitors” (Boehringer Ingelheim International GmbH, priority 2008, dated 2014) one finds IC50 data, which are given here for 66 compounds.

One may read the IC50 as the point on the concentration scale where inhibition reaches its midpoint. Higher therefore signals weaker potency.

This test deals with B-Raf (V600E)-kinase (Homo sapiens (Human), UniProt P15056, V600E). The test can be described thus: Kinase test B-RAF (V600E). In kind it is biochemical. The settings on record: B-RAF (V600E) kinase test, 250 μM ATP. An outline of the steps:
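Read-out is DELFIA europium TRF of phospho-MEK (Ser217/221) on biotinylated MEK1 bound to streptavidin plates, IC50 from dose-response. Reaction ran 60 min at RT with 250 μM ATP, after a 24 h RT preincubation of compound with B-Raf (V600E) kinase, 5% DMSO final.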

Chain of B-Raf (V600E)-kinase (P15056 whole entry V600E): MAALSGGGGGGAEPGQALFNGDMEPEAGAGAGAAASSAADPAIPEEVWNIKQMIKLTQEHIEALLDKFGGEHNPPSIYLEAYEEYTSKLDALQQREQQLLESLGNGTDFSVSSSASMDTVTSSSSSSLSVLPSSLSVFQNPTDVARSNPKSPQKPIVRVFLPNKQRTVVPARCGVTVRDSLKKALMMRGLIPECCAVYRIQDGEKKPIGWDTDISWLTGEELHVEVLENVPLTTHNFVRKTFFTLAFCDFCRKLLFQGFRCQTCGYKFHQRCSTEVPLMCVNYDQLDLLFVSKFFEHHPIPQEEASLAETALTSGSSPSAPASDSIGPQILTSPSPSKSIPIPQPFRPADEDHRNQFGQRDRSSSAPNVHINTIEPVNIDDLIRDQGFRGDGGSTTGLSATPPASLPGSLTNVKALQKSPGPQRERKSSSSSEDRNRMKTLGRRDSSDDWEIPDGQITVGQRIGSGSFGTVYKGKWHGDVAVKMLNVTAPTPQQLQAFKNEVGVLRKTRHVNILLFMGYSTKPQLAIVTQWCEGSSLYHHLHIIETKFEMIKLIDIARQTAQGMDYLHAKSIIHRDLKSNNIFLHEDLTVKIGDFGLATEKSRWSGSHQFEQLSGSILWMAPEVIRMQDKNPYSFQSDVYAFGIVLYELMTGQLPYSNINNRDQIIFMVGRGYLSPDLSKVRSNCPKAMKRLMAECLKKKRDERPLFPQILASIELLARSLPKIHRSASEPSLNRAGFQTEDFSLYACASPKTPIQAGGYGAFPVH

`Cc1ccc(NC(=O)c2cccc(C(C)(C)C#N)c2)cc1Nc1ncnc2cnc(N(C)C3CCOC3)nc12` (stereo not drawn) [IV-37] came in with a concentration for half-maximal inhibition (IC50) of 1 nM.

Take `Cc1ccc(C(=O)Nc2ccccc2)cc1Nc1ncnc2cnc(N3CCOCC3)nc12` [III-326]: 292 nM corresponded to half-maximal inhibition (IC50).

For the compound `COCCN1CCN(c2ncc3ncnc(Nc4cc(C(=O)Nc5cc(C(C)(C)C)on5)ccc4C)c3n2)CC1` [III-517], the half-inhibitory concentration (IC50) worked out at 3 nM.

For `COc1ccc(NC(=O)c2ccc(C)c(Nc3ncnc4cnc(N5CCC(N6CCCCC6)CC5)nc34)c2)cc1C(F)(F)F` [III-556], it took 7 nM to reach half-maximal inhibition (IC50).

`CN1CCN(c2cc(NC(=O)c3ccc(F)c(Nc4ncnc5cnc(N6CCOCC6)nc45)c3)cc(C(F)(F)F)c2)CC1` [III-382] had an IC50 of less than 1 nM.

In the case of `Cc1ccc(C(=O)Nc2cccc(C(C)(C)C)c2)cc1Nc1ncnc2cnc(N3CCN(CC4CCN(C)CC4)CC3)nc12` [III-416], half-maximal inhibition (IC50) required 1 nM. In other words, the single-digit nanomolar range.

Regarding `Cc1ccc(C(=O)Nc2cccc(C(C)(C)C#N)c2)cc1Nc1ncnc2cnc(N(C)CCN(C)C)nc12` [III-198], 11 nM corresponded to half-maximal inhibition (IC50).

In the case of `Cc1ccc(NS(=O)(=O)C(C)C)cc1Nc1ncnc2cnc(N3CCN(C)CC3)nc12` [IV-58], the IC50 stood at 49 nM.

Compound `COc1ccc(NC(=O)c2ccc(C(F)(F)F)c(Nc3ncnc4cnc(N5CCCN(C)CC5)nc34)c2)cc1C(F)(F)F` [III-45] registered a 50% inhibitory concentration (IC50) of 283 nM. This IC50 is about 5.8-fold higher than that of the compound before.

Turning to `Cc1ccc(C(=O)Nc2cccc(C(F)(F)F)c2)cc1Nc1ncnc2cnc(N(C)CCN(C)C)nc12` [III-232], the midpoint of inhibition, the IC50, lay at 4 nM. This IC50 lies about 71-fold lower than the previous one.

In turn, `COCCNc1ncc2ncnc(Nc3cc(C(=O)Nc4cc(OCCN(C)C)cc(C(F)(F)F)c4)ccc3C)c2n1` [III-151] showed an IC50 of 1 nM.

In turn, `Cc1ccc(C(=O)Nc2cc(C(C)(C)C)n[nH]2)cc1Nc1ncnc2c(N)nc(N3CCN4CCCC4C3)nc12` (stereo not drawn) [I-34] registered an IC50 of 2 nM.

Compound `Cc1ccc(C(=O)Nc2ccc(C(F)(F)F)cc2)cc1Nc1ncnc2c(N)nc(N3CCN(C)CC3)nc12` [I-5] gave an IC50 of 5 nM.

Regarding `COc1ccc(C(=O)Nc2cc(C(C)(C)C)on2)cc1Nc1ncnc2cnc(N3CCN(C)CC3)nc12` [III-95], the IC50 came to 2 nM.

`Cc1ccc(C(=O)Nc2cc(CN3CCCC3)cc(C(F)(F)F)c2)cc1Nc1ncnc2cnc(NC3CC3)nc12` [III-111]: the IC50 is less than 1 nM.

Turning to `Cc1ccc(C(=O)NCc2cccc(C(C)(C)C)c2)cc1Nc1ncnc2cnc(N(C)CCN(C)C)nc12` [III-3], the IC50 stood at 118 nM.

`CN(C)CCN(C)c1ncc2ncnc(Nc3cc(C(=O)Nc4cc(C(C)(C)C)on4)ccc3C(F)(F)F)c2n1` [III-56]: half-maximal inhibition (IC50) was put at 1990 nM. Compared with the last compound, the IC50 is about 17-fold higher.

For the compound `Cc1ccc(C(=O)Nc2cc(N3CCN(C)CC3)cc(C(F)(F)F)c2)cc1Nc1ncnc2cnc(N3CC[C@H](F)C3)nc12` [III-457], the IC50 came out at 4 nM.

As for `COc1ccc(C(=O)Nc2cccc(C(F)(F)F)c2)cc1Nc1ncnc2c(N)nc(N3CCCN(C)CC3)nc12` [I-31], half-maximal inhibition (IC50) was put at 58 nM. This IC50 lies about 14-fold higher than the previous one.

For `Cc1ccc(C(=O)Nc2cc(C(C)(C)C)on2)cc1Nc1ncnc2cnc(N3CCC(N(C)C)CC3)nc12` [III-495], the concentration for half-maximal inhibition (IC50) turned out to be 2 nM.

For the compound `Cc1ccc(C(=O)Nc2cc(C(C)(C)C)on2)cc1Nc1ncnc2cnc(NCC(C)C)nc12` [III-487], 13 nM corresponded to half-maximal inhibition (IC50). This IC50 is about 6.5-fold higher than that of the compound before.

As to `Cc1ccc(C(=O)Nc2cc(C(C)(C)C)n[nH]2)cc1Nc1ncnc2cnc(N3CCN(C)CC3)nc12` [III-448], the half-maximal inhibitory concentration (IC50) turned out to be 8 nM. This IC50 lies about 1.6-fold lower than the previous one.

For the compound `Cc1ccc(C(=O)Nc2cc(CN3CCCC3)cc(C(F)(F)F)c2)cc1Nc1ncnc2cnc(N3CCC(F)(F)CC3)nc12` [III-102], the IC50 amounted to 4 nM. Against the preceding compound, the IC50 is about 2-fold lower.

As to `Cc1ccc(C(=O)Nc2cccc(C(C)(C)C#N)c2)cc1Nc1ncnc2cnc(N3CCCC3)nc12` [III-276], half-maximal inhibition (IC50) required 6 nM.

`Cc1ccc(C(=O)Nc2cc(C(C)(C)C)nn2C)cc1Nc1ncnc2c(N)nc(N3CCN4CCCC4C3)nc12` (stereo not drawn) [I-85] returned an IC50 of 7 nM.

`CCN1CCN(c2cc(NC(=O)c3ccc(C)c(Nc4ncnc5cnc(N6CCN(CCOC)CC6)nc45)c3)cc(C(F)(F)F)c2)CC1` [III-424] yielded an IC50 of 6 nM.

Compound `Cc1cn(-c2ncc3ncnc(Nc4cc(C(=O)Nc5cc(C(C)(C)C)n[nH]5)ccc4C)c3n2)cn1` [III-605] returned a concentration for half-maximal inhibition (IC50) of 6 nM.

`COc1ccc(NC(=O)c2ccc(C)c(Nc3ncnc4c(N)nc(N5CCN(C6CCN(C)CC6)CC5)nc34)c2)cc1C(F)(F)F` [I-15]: the IC50 came out at 1 nM.

On to `CCN1CCN(c2cc(NC(=O)c3ccc(C)c(Nc4ncnc5cnc(N(C)CC6CCCCO6)nc45)c3)cc(C(F)(F)F)c2)CC1` (stereo not drawn) [III-408], for which 25 nM corresponded to half-maximal inhibition (IC50).

As to `COCCN(C)c1ncc2ncnc(Nc3cc(C(=O)Nc4cc(C(F)(F)F)ccn4)ccc3C)c2n1` [III-472], the IC50 came to 2 nM.

Regarding `Cc1ccc(NC(=O)c2cccc(C(F)(F)F)c2)cc1Nc1ncnc2c(N)nc(N(C)C)nc12` [II-7], the midpoint of inhibition, the IC50, lay at 15 nM.

Compound `COc1ccc(C(=O)Nc2cccc(C(F)(F)F)c2)cc1Nc1ncnc2c(N)nc(N3CCN(C4CCN(C)CC4)CC3)nc12` [I-32] yielded a half-inhibitory concentration (IC50) of 14 nM.

Consider `COc1ncc2ncnc(Nc3cc(C(=O)Nc4cccc(C(C)(C)C)c4)ccc3C)c2n1` [III-570], for which the IC50 was less than 1 nM.

The compound `CNc1ncnc2c(Nc3cc(C(=O)Nc4cc(C(C)(C)C)on4)ccc3C)ncnc12` [VII-1] had a concentration for half-maximal inhibition (IC50) of 1 nM.

Regarding `Cc1ccc(C(=O)Nc2cc(CN3CCCC3)cc(C(F)(F)F)c2)cc1Nc1ncnc2cnc(NCCc3ccccc3)nc12` [III-118], the IC50 worked out at 2 nM.

On to `Cc1ccc(C(=O)NCc2ccc(C(C)(C)C)cc2)cc1Nc1ncnc2cnc(N3CCCC3)nc12` [III-267], for which the IC50 was determined as 836 nM.

`Cc1ccc(NC(=O)c2cccc(C(C)(C)C#N)c2)cc1Nc1ncnc2cnc(N(C)CC3CCOCC3)nc12` [IV-39] returned an IC50 of 4 nM.

Compound `CC(C)(C#N)c1cccc(NC(=O)c2ccc(F)c(Nc3ncnc4cnc(NC5CCOC5)nc34)c2)c1` (stereo not drawn) [III-386] registered an IC50 of 1 nM.

In turn, `COc1ccc(NC(=O)c2ccc(C)c(N(C)c3ncnc4cnc(N5CC[C@H](F)C5)nc34)c2)cc1C(F)(F)F` [III-587] gave a 50% inhibitory concentration (IC50) of 65 nM.

For the compound `Cc1ccc(C(=O)NCc2ccc(C(C)(C)C)cc2)cc1Nc1ncnc2cnc(N3CCCCC3)nc12` [III-245], half-maximal inhibition (IC50) required 460 nM.

`CN1CCN(c2cc(NC(=O)c3ccc(F)c(Nc4ncnc5cnc(N6CCOCC6)nc45)c3)cc(C(F)(F)F)c2F)CC1` [III-385] had an IC50 of 2 nM.

With `Cc1ccc(C(=O)Nc2ccc(Cl)c(C(F)(F)F)c2)cc1Nc1ncnc2cnc(N3CCCCC3)nc12` [III-331], the 50% inhibitory concentration (IC50) amounted to 10 nM.

Regarding `COCCN1CCN(c2ncc3ncnc(Nc4cc(C(=O)Nc5cc(C(F)(F)F)ccc5-n5cccn5)ccc4C)c3n2)CC1` [III-538], half-maximal inhibition (IC50) was put at 10 nM.

For `Cc1ccc(C(=O)Nc2cc(C(C)(C)C)on2)cc1Nc1ncnc2cncnc12` [V-1], the half-inhibitory concentration (IC50) amounted to 2 nM.

The compound `COCCN1CCN(c2nc(N)c3ncnc(Nc4cc(C(=O)Nc5cc(C(C)(C)C)n[nH]5)ccc4C)c3n2)CC1` [I-41] returned an IC50 of 5 nM.

As for `CCN1CCN(c2ncc3ncnc(Nc4cc(C(=O)Nc5cc(C(C)(C)C)on5)ccc4C)c3n2)CC1` [III-491], it took 2 nM to reach half-maximal inhibition (IC50).

Consider `Cc1ccc(C(=O)Nc2cc(C(C)(C)C)on2)cc1Nc1ncnc2cnc(N3CCN(CC(C)C)CC3)nc12` [III-494], for which it took 4 nM to reach half-maximal inhibition (IC50).

Turning to `COc1ccc(NC(=O)c2ccc(C)c(Nc3ncnc4cnc(NCC(C)C)nc34)c2)cc1C(F)(F)F` [III-547], the concentration for half-maximal inhibition (IC50) was less than 1 nM.

On to `Cc1ccc(NC(=O)c2cc(C(C)(C)C)on2)cc1Nc1ncnc2cnc(N3CCN(C)CC3)nc12` [IV-5], for which the IC50 stood at 129 nM. In other words, the sub-micromolar range.

`COc1ccc(NC(=O)c2ccc(C)c(Nc3ncnc4cnc(N5CCN(CC6CCOC6)CC5)nc34)c2)cc1C(F)(F)F` (stereo not drawn) [III-432] showed a 50% inhibitory concentration (IC50) of 6 nM.

Compound `COCCN(C)c1ncc2ncnc(Nc3cc(C(=O)Nc4ccc(OC)c(C(F)(F)F)c4)ccc3OC)c2n1` [III-17] returned an IC50 of 3 nM.

`Cc1ccc(NS(=O)(=O)CC(C)C)cc1Nc1ncnc2cnc(N3CCN(C)CC3)nc12` [IV-57] showed a half-maximal inhibitory concentration (IC50) of 10000 nM.

Regarding `COc1ccc(NC(=O)c2ccc(C)c(Nc3ncnc4cnc(N5CCC(N6C[C@@H](C)O[C@@H](C)C6)CC5)nc34)c2)cc1C(F)(F)F` [III-559], the IC50 turned out to be 14 nM. This IC50 lies about 710-fold lower than the previous one.

For the compound `Cc1ccc(C(=O)Nc2cc(N3CCN(C(C)C)CC3)cc(C(F)(F)F)c2)cc1Nc1ncnc2cnc(N3CC[C@H](F)C3)nc12` [III-456], the IC50 is 3 nM.

In turn, `Cc1ccc(C(=O)Nc2cccc(S(=O)(=O)N(C)C)c2)cc1Nc1ncnc2cnc(N3CCOCC3)nc12` [III-320] returned an IC50 of 2 nM.

As to `COCCN(C)c1ncc2ncnc(Nc3cc(C(=O)Nc4cc(C(C)(C)C)on4)ccc3C)c2n1` [III-474], the IC50 was found to be 1 nM. This IC50 is about 2-fold lower than that of the compound before.

For `Cc1ccc(C(=O)NC2CCCCC2)cc1Nc1ncnc2cnc(N3CCOCC3)nc12` [III-325], the 50% inhibitory concentration (IC50) was found to be 1400 nM.

`Cc1ccc(C(=O)Nc2cccc(C(F)(F)F)c2)cc1Nc1ncnc2cnc(N3CCN(C)CC3)nc12` [III-298] yielded an IC50 of 1 nM. This IC50 lies about 1400-fold lower than the previous one.

As to `Cc1ccc(NC(=O)c2cccc(C(F)(F)F)c2)cc1Nc1ncnc2c(N)nc(N3CCN(C4CCCC4)CC3)nc12` [II-9], the 50% inhibitory concentration (IC50) amounted to 24 nM.

In turn, `COc1ccc(NC(=O)c2ccc(C)c(Nc3ncnc4cnc(N5CCN(C)CC5)nc34)c2)cc1C(F)(F)F` [III-1] came in with a concentration for half-maximal inhibition (IC50) of 2 nM.

On to `Cc1ccc(C(=O)Nc2ccc(C(F)(F)F)cc2)cc1Nc1ncnc2c(N)nc(N3CCNCC3)nc12` [I-4], for which half-maximal inhibition (IC50) required 7 nM.

As for `COc1ccc(NC(=O)c2ccc(F)c(Nc3ncnc4cnc(N5CCN(C(C)C)CC5)nc34)c2)cc1C(F)(F)F` [III-403], the 50% inhibitory concentration (IC50) worked out at 3 nM.

For the compound `Cc1ccc(C(=O)NCC2CCOC2)cc1Nc1ncnc2cnc(N3CCCCC3)nc12` (stereo not drawn) [III-212], the IC50 is greater than 15000 nM.

Compound `COc1ccc(C(=O)Nc2ccc(OC)c(C(F)(F)F)c2)cc1Nc1ncnc2cnc(N3CCCCCC3)nc12` [III-19] yielded an IC50 of 1 nM.

`COc1ccc(NC(=O)c2ccc(F)c(Nc3ncnc4cnc(N5CCCC5)nc34)c2)cc1C(F)(F)F` [III-38] yielded a half-maximal inhibitory concentration (IC50) of 5 nM.

For the compound `Cc1ccc(NS(C)(=O)=O)cc1Nc1ncnc2cnc(N3CCN(C)CC3)nc12` [IV-66], the IC50 came to 10000 nM.
